Source: article PMC11243625, “Synthesis, Docking, and Machine Learning Studies of Some Novel Quinolinesulfonamides–Triazole Hybrids with Anticancer Activity” (Molecules, 2024)
≈ marks a conversion by molar mass, not a printed value.

Experiments:
NHDF = experiment: WST-1 test, normal human dermal fibroblasts; format: cell-based; conditions: Homo sapiens, NHDF; 72 h, WST-1, normal cells
Protocol: (§1) Hybrids 4–14 were tested as anticancer agents against four human cancer cell lines: colon cancer (Caco-2), glioblastoma (SNB-19), lung cancer (A549), ovarian cancer (SKOV-3), and normal human dermal fibroblasts (NHDFs). Cisplatin was used as the reference substance. The results are presented as the compound concentration of the compound (μM) that inhibits the growth of 50% of cancer cells compared to control cells (IC50). A negative value (Neg) means that the compound concentration of the tested hybrids was greater than 500 µM. […] It is generated only by a weak van der Waals interaction with Arg84. […] There is also a visible difference in activity depending on the type of group present on the triazole ring (substituent C in Figure 2). The results obtained indicate that hybrids containing aromatic systems as a C substituent in their structure, especially another quinoline molecule (compounds 9 and 10), have high activity.
(§2) Cell cultures were performed in 96-well plates (Nunc Thermo Fisher Scientific, Waltham, MA, USA). Cells were seeded at 5 × 10^4/well and incubated for 24 h (at 37 °C, 5% CO2, and constant humidity). The medium was replaced with fresh with the addition of test compounds at a concentration of 0.1–100 µg/mL of DMSO and incubated again for another 72 h. After this time, the WST-1 test (Roche Molecular Biochemicals, Mannheim, Germany) was performed to assess the metabolic activity of the cells. Absorbance was measured at λ = 450 nm using a UVM340 microplate reader (Biogenet, Józefów, Poland). Results are expressed as the mean value of at least three independent experiments performed in triplicate.

Caco-2 = experiment: WST-1 test, colon cancer cells; format: cell-based, human; conditions: Homo sapiens, Caco-2, 72 h
Protocol: Hybrids 4–14 were tested as anticancer agents against four human cancer cell lines: colon cancer (Caco-2), glioblastoma (SNB-19), lung cancer (A549), ovarian cancer (SKOV-3), and normal human dermal fibroblasts (NHDFs).
as §2

A549 = system: A549; set-up: method as in doi:10.1016/j.arabjc.2016.10.009; conditions: values marked *; read-out: IC50 A-549; cited from earlier work
SKOV-3 = experiment: WST-1 test, ovarian cancer cells; format: cell-based, human; conditions: Homo sapiens, SK-OV-3, 72 h
Protocol: as §1, §2

SNB-19 = experiment: WST-1 test, glioblastoma cells; format: cell-based, human
Protocol: as §1, §2

ROCK1 = conditions: read-out: IC50 for ROCK1; cited from earlier work
HCC = conditions: Figure 1; cited from earlier work

Row | SMILES | IC50 (NHDF) [µM] | IC50 (Caco-2) [µM] | IC50 (A549) [µM] | IC50 (SKOV-3) [µM] | IC50 (SNB-19; Homo sapiens, SNB-19, 72 h) [µM] | IC50 (SNB-19; 72 h) [µM] | IC50 (ROCK1) [µM] | IC50 HCC (HCC) [µg/mL]
1 | CCCCn1cc(CNS(=O)(=O)c2cccc3cccnc23)nn1 [Compound 12a, 8-N-{[1-(1-butyl)-1H-1,2,3-triazol-4-yl]methyl}quinolinesulfonamide] | > 500 | 0.38 | > 500 | 53.9 | 0.44 | – | – | –
2 | CCOC(=O)CCn1cc(CNS(=O)(=O)c2cccc3cccnc23)nn1 [Compound 13a, Ethyl 3-{[4-(8-sulfamoylquinolyl)methyl]-1H-1,2,3-triazol-1-yl}propanoate] | 223 | 0.32 | > 500 | 64.6 | ≤ 0.4 | 0.39 | – | –
3 | C=C(Cn1cc(CN(C)S(=O)(=O)c2cccc3cccnc23)nn1)[C@@H]1CC[C@]2(COC(C)=O)CC[C@]3(C)[C@H](CC[C@@H]4[C@@]5(C)CC[C@H](OC(C)=O)C(C)(C)[C@@H]5CC[C@]43C)[C@@H]12 [Compound 14b, 8-N-methyl-N-({1-[3β, 28-diacetoxylup-20(29)-en-30-yl]-1H-1,2,3-triazol-4-yl}methyl)-quinolinesulfonamide] | > 500 | 18.2 | > 500 | 1.09 | 9.26 | – | – | –
4 | O=S(=O)(c1cccc2cnccc12)N1CCCNCC1 [Fasudil] | – | – | – | – | – | – | […] | 0.04 (≈ 0.137 µM)
